Series [1] deals with cochlear hair cells (mouse cochlear explants). It counts as cell-based. Particulars: for number of viable hair cells: untreated explants 17-52. An excerpt: In some embodiments, an in vitro method is employed. An illustrative assay uses an aminoglycoside-induced model (using gentamycin) of hair cell death using cochlear explants. In brief, the cochleae are collected from test animal, e.g., mice. All cochleae are combined in the same dissection maintenance bath and plated as an individual sample. The following morning, high magnification digital images of cochlea are taken and cochlear explant is assigned to groups. A desired number of explants will be used for further gentamicin treatment. Test article and positive control article are dosed ˜6 hours either prior, together with, or following to gentamicin for a duration of up to 3 days. If the culture medium is replaced (e.g. when gentamicin is added/removed), the test or positive control article will be re-administered. The cochlea are cultured and observed for health and survival. At the end of the culture cochlear explants are bathed with buffer and processed for cochleogram. Following the fixation, all the cochlear explants undergo immunofluorescent staining with anti-Myosin VIIa and Phalloidin in order to specifically label the hair cells. The explants are then mounted on microscope slides, and imaged utilizing a confocal microscope using the same laser power settings for all samples. Cochlear fragment images are then divided into 20% fragments from the apex to the base. MyosinVIIa light intensity is quantified in each fragment and compared among groups. Image analysis is performed using an imaging platform, e.g., a Fiji image analysis platform. Explants are scanned using confocal microscope with filters for 488 nm and 594 nm wave lengths. Scanning is performed using the same laser power through the entire imaging for proper light intensity calculation. For analysis, cochlea can be divided in fragment of X %. Intensity of light coming from MyoVii is quantified in each fragment and compared among groups.
Mouse cochlear explants were treated with “ORI-069” a small molecule inhibitor of DLK and LZK. ORI-069 is 2-Amino-N-[(2S)-butan-2-yl]-7-(1-{2-methyl-1-[6-(trifluoromethyl)pyridin-3-yl]propyl}-1H-pyrazol-4-yl)[1,2,4]triazolo[1,5-ca]pyridine-5-carboxamide (stereoisomers 2, eutomer).
Animals were euthanized in accordance with American Veterinary Medical Association guidelines and cochleae were collected. All cochleae from each group were combined in the same dissection maintenance bath and plated as a group.
At the end of the culture period, the cochlear explants were bathed with 10% neutral buffered formalin (NBF) and processed for hair cell counting. Digital images of the cultures were collected before fixation.
Following fixation, all cochlear explants underwent immunofluorescent staining with anti-Myosin VIIa to specifically label the hair cells. The explants were mounted on microscope slides, then imaged utilizing a confocal microscope: 20× for full scan and with 63× oil, zoom 2.25, 4 zones along the length of the cochlea: one from 50-200 μm for each extremity, one in the 33% tile and one in the 66% tile. Detailed scanning was performed using 488 nm and 594 nm filters.
A blind counting of all hair cells (OHC & IHC undiscriminated) was performed on 4 to 6 zones of each explant (fragments 1, 2, 3, 4, 5 and 6) through the entire z stack generated. Counting and fragment length measure was performed by 3 different individuals. Only cells without nucleus aberration, with good staining, integrity, and well delimited cell outline were considered for counting. Cell density was determined by reporting each counting to the length of the fragment. Image analysis was performed using Fiji image analysis platform, a distribution of ImageJ.

The subject of the next series is HC survival and hearing. Particulars: literature (Ylikoski 2002; Pirvola 2000); cited from earlier work.

Read-outs that look alike come from different tables or passages of the source.

The values that follow come from patent US20250041451A1, “GENE THERAPY FOR HEARING LOSS” (Perceive Biotherapeutics, Inc., priority 2021, published 2025).

In the case of `CCSCc1ccc2c(c1)c1c3c(c4c5cc(CSCC)ccc5n5c4c1n2[C@H]1C[C@](O)(C(=O)OC)[C@]5(C)O1)CNC3=O` [CEP-1347], the “level of hair cells compared to gentamycin treated explants” value in series [1] (0.5 μM test article + gentamycin 50 μM) is reported as “same low level of hair cells as the gentamycin treated explants”. Also, in series [1] (positive control, 0.5 μM + gentamycin 50 μM), the protective effect result is “did not show a protective effect”. In addition, the “HC survival and hearing in multiple animal models” value in the series with HC survival and hearing is “increase HC survival and preserve hearing”.
For the molecule `CC[C@H](C)NC(=O)c1cc(-c2cnn(C(c3ccc(C(F)(F)F)nc3)C(C)C)c2)cc2nc(N)nn12` (stereo partly drawn) [ORI-069, 2-Amino-N-[(2S)-butan-2-yl]-7-(1-{2-methyl-1-[6-(trifluoromethyl)pyridin-3-yl]propyl}-1H-pyrazol-4-yl)[1,2,4]triazolo[1,5-ca]pyridine-5-carboxamide], in series [1] (5 μM test article + gentamycin 50 μM), the “number of hair cells compared to gentamycin treated explants” value is given as “higher compared to gentamycin treated explants”. The “number of viable hair cells” value in series [1] (gentamycin 50 μM (16 h) treated explants co-administered with 0.5 μM test article, 3 days) is 0-20 hair cells/fragment; in series [1] (gentamycin 50 μM (16 h) treated explants co-administered with 5 μM test article, 3 days), 0-32 hair cells/fragment. For the same molecule, the “protection of explant cultures (3-D Z-stack reconstructions, FIG. 2)” value in series [1] (gentamycin 50 μM treated explants, concentration not given) is “protected explant cultures”.
Consider gentamycin, for which, in series [1] (gentamycin 50 μM alone, single 16 h), the “number of viable hair cells” value was 0-14 hair cells/fragment.
